Assay results: US8487108B2, “Piperidinyl carbamate intermediates for the synthesis of aspartic protease inhibitors” (Vitae Pharmaceuticals, Inc., priority 2005, dated 2013)
pIC50: −log10 of the molar value.

Assays:
[1] = target: T1, trypsin-activated recombinant human renin (Homo sapiens, UniProt P00797); experiment: Renin fluorescence assay (internally quenched peptide substrate); assay type: biochemical
T1 sequence (P00797 67-406): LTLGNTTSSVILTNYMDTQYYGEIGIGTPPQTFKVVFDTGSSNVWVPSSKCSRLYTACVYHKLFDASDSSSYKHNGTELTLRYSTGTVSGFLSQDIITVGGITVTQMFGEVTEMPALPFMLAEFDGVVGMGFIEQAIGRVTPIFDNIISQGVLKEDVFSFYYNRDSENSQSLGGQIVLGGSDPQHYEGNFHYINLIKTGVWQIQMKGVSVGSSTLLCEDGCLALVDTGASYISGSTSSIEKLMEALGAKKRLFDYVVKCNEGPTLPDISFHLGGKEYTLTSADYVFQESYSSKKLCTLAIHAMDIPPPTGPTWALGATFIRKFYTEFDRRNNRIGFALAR
Procedure, shortened: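 Compounds (1 nM–10 μM final, DMSO) were mixed with internally quenched angiotensinogen-sequence substrate in pH 7.0 BES/NaCl/BSA buffer, then 0.2-2 nM trypsin-activated human renin added. Rate from the linear fluorescence increase (340 nm excitation, 495 nm emission) over 60-360 min at rt, compared with uninhibited control.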

[2] = target: T2, plasma renin activity (PRA) in pooled mixed-gender human plasma (Homo sapiens, UniProt P00797); experiment: Plasma renin activity (PRA) assay in human plasma; assay type: biochemical
T2 construct: pooled mixed-gender human plasma stabilized with EDTA; from tissue; host or cells: pooled mixed-gender human plasma (EDTA)
T2 sequence (P00797 67-406): T1 sequence (P00797 67-406)
Method: Incubations mixtures contain in the final volume of 250 μL 95.5 mM N,N-bis(2-hydroxyethyl)-2-aminoethanesulfonic acid, pH 7.0, 8 mM EDTA, 0.1 mM neomycin sulfate, 1 mg/mL sodium azide, 1 mM phenylmethanesulfonyl fluoride, 2% DMSO and 87.3% of pooled mixed-gender human plasma stabilized with EDTA. For plasma batches with low PRA (less than 1 ng/ml/hr) ˜2 pM of recombinant human renin is added to achieve PRA of 3-4 ng/ml/hr. The cleavage of endogenous angiotensinogen in plasma is carried out at 37° C. for 90 min and the product angiotensin I is measured by competitive radioimmunoassay using DiaSorin PRA kit.

SMILES | pIC50 ([1]; compounds of Formula (XL)) | pIC50 ([2]; compounds of Formula (XL)) | pIC50 ([1]; compounds I*) | also measured
CN[C@H](CNC(=O)N1CCC[C@@H]([C@@H](OCCNC(=O)OC)c2cc(Cl)ccc2C)C1)C[C@H]1CCCOC1 [XL-8, methyl 2-((R)-(5-chloro-2-methylphenyl)((R)-1-((S)-2-(methylamino)-3-((R)-tetrahydro-2H-pyran-3-yl)propylcarbamoyl)piperidin-3-yl)methoxy)ethylcarbamate] | > 9.00 | > 8.00 |  | 
CNC[C@@H](CC1CCCOC1)NC(=O)N1CCC[C@@H]([C@@H](OCCNC(=O)OC)c2cc(F)cc(Cl)c2)C1 (single isomer, unassigned) [Example L-3c] |  |  |  | pIC50 ([1]; compounds of Formula (L)): > 8.00; pIC50 ([2]; compounds of Formula (L)): > 8.00
CNC[C@@H](CC1CCCOC1)NC(=O)N1CCC[C@@H]([C@@H](OCCNC(=O)OC)c2cc(F)cc(Cl)c2)C1 (single isomer, unassigned) [Example L-3d] |  |  |  | pIC50 ([1]; compounds of Formula (L)): > 7.70; pIC50 ([2]; compounds of Formula (L)): > 7.70
CNC[C@H](C[C@H]1CCCCOC1)NC(=O)N1CCC[C@@H]([C@@H](OCCNC(=O)OC)c2cccc(Cl)c2F)C1 [I*-140a, methyl 2-((R)-(3-chloro-2-fluorophenyl)((R)-1-((S)-1-(methylamino)-3-((R)-oxepan-3-yl)propan-2-ylcarbamoyl)piperidin-3-yl)methoxy)ethylcarbamate] |  |  | > 9.00 | 
CNC[C@H](CC1CCCCC1)N/C(=N\C#N)N1CCC[C@@H]([C@@H](OCCNC(=O)OC)c2cccc(Cl)c2)C1 [I*-127a, methyl 2-((R)-(3-chlorophenyl)((R)-1-(N′-cyano-N—((S)-1-cyclohexyl-3-(methylamino)propan-2-yl)carbamimidoyl)piperidin-3-yl)methoxy)ethylcarbamate] |  |  | > 7.70 | 
CNC[C@H](CC1CCOC1)NC(=O)N1CCC[C@@H]([C@@H](OCCNC(=O)OC)c2cccc(F)c2)C1 (stereo partly drawn) [I*-6a, methyl 2-((R)-(3-fluorophenyl)((3R)-1-((S)-1-(methylamino)-3-(tetrahydrofuran-3-yl)propan-2-ylcarbamoyl)piperidin-3-yl)methoxy)ethylcarbamate] |  |  | < 7.30 | 
CC[C@@H](NC)[C@H](CC1CCCCC1)NC(=O)N1CCC[C@@H]([C@@H](OCCNC(=O)OC)c2cccc(Cl)c2)C1 [I*-130a, methyl 2-((R)-(3-chlorophenyl)((R)-1-((2S,3R)-1-cyclohexyl-3-(methylamino)pentan-2-ylcarbamoyl)piperidin-3-yl)methoxy)ethylcarbamate] |  |  | > 7.70 | 
CNC[C@H](C[C@H]1CCCC[C@@H]1O)NC(=O)N1CCC[C@@H]([C@@H](OCCNC(=O)OC)c2cccc(Cl)c2)C1 (relative stereo) [I*-105a, methyl 2-((R)-(3-chlorophenyl)((R)-1-((S)-1-((1R,2S)-2-hydroxycyclohexyl)-3-(methylamino)propan-2-ylcarbamoyl)piperidin-3-yl)methoxy)ethylcarbamate] |  |  | > 8.00 | 
CNC[C@H](CC1CCCCC1)NC(=O)N1CCC[C@@H]([C@@H](OCCNC(=O)OC)c2cccc(C(F)(F)F)c2)C1 [I*-136a, methyl 2-((R)-((R)-1-((S)-1-cyclohexyl-3-(methylamino)propan-2-ylcarbamoyl)piperidin-3-yl)(3-(trifluoromethyl)phenyl)methoxy)ethylcarbamate] |  |  | > 8.00 | 
CCNC(=O)CO[C@@H](c1cccc(Cl)c1)[C@@H]1CCCN(C(=O)N[C@H](CNC)CC2CCOCC2)C1 [I*-31a, (R)-3-((R)-(3-chlorophenyl)(2-(ethylamino)-2-oxoethoxy)methyl)-N—((S)-1-(methylamino)-3-(tetrahydro-2H-pyran-4-yl)propan-2-yl)piperidine-1-carboxamide] |  |  | < 7.30 | 
CNC[C@H](C[C@H]1CCCCOC1)NC(=O)N1CCC[C@@H]([C@@H](OCCNC(=O)OC)c2cccc(Cl)c2)C1 [I*-106a, methyl 2-((R)-(3-chlorophenyl)((R)-1-((S)-1-(methylamino)-3-((R)-oxepan-3-yl)propan-2-ylcarbamoyl)piperidin-3-yl)methoxy)ethylcarbamate] |  |  | > 9.00 | 
CNC[C@H](CC1CCC(=O)CC1)NC(=O)N1CCC[C@@H]([C@@H](OCCNC(=O)OC)c2cccc(Cl)c2)C1 [I*-80a, methyl 2-((R)-(3-chlorophenyl)((R)-1-((S)-1-(methylamino)-3-(4-oxocyclohexyl)propan-2-ylcarbamoyl)piperidin-3-yl)methoxy)ethylcarbamate] |  |  | > 8.00 | 

Second part, led by results:

pIC50 ([1]; compounds of Formula (XL)) | pIC50 ([2]; compounds of Formula (XL)) | pIC50 ([1]; compounds I*) | SMILES | also measured
> 8.00 | > 8.00 |  | COC(=O)NCCO[C@@H](c1cc(F)cc(Cl)c1)[C@@H]1CCCN(C(=O)NC[C@@H](N)C[C@H]2CCCOC2)C1 [XL-3, methyl 2-((R)-((R)-1-((S)-2-amino-3-((R)-tetrahydro-2H-pyran-3-yl)propylcarbamoyl)piperidin-3-yl)(3-chloro-5-fluorophenyl)methoxy)ethylcarbamate] | 
> 8.00 | > 8.00 |  | COC(=O)NCCO[C@@H](c1cc(F)cc(F)c1)[C@@H]1CCCN(C(=O)NC[C@@H](N)C[C@H]2CCCOC2)C1 [XL-4, methyl 2-((R)-((R)-1-((S)-2-amino-3-((R)-tetrahydro-2H-pyran-3-yl)propylcarbamoyl)piperidin-3-yl)(3,5-difluorophenyl)methoxy)ethylcarbamate] | 
> 8.00 | > 7.70 |  | COC(=O)NCCO[C@@H](c1cccc(F)c1)[C@@H]1CCCN(C(=O)NC[C@@H](N)C[C@H]2CCCOC2)C1 [XL-2, methyl 2-((R)-((R)-1-((S)-2-amino-3-((R)-tetrahydro-2H-pyran-3-yl)propylcarbamoyl)piperidin-3-yl)(3-fluorophenyl)methoxy)ethylcarbamate] | 
> 9.00 | > 9.00 |  | COC(=O)NCCO[C@@H](c1cc(Cl)ccc1C)[C@@H]1CCCN(C(=O)NC[C@@H](N)C[C@H]2CCCOC2)C1 [XL-5, methyl 2-((R)-((R)-1-((S)-2-amino-3-((R)-tetrahydro-2H-pyran-3-yl)propylcarbamoyl)piperidin-3-yl)(5-chloro-2-methylphenyl)methoxy)ethylcarbamate] | 
> 8.00 | > 8.00 |  | COC(=O)NCCO[C@@H](c1cccc(Cl)c1)[C@@H]1CCCN(C(=O)NC[C@@H](N)C[C@H]2CCCOC2)C1 [XL-1, methyl 2-((R)-((R)-1-((S)-2-amino-3-((R)-tetrahydro-2H-pyran-3-yl)propylcarbamoyl)piperidin-3-yl)(3-chlorophenyl)methoxy)ethylcarbamate] | 
> 8.00 | > 7.30 |  | COC(=O)NCCO[C@@H](c1cc(F)ccc1C)[C@@H]1CCCN(C(=O)NC[C@@H](N)C[C@H]2CCCOC2)C1 [XL-6, methyl 2-((R)-((R)-1-((S)-2-amino-3-((R)-tetrahydro-2H-pyran-3-yl)propylcarbamoyl)piperidin-3-yl)(5-fluoro-2-methylphenyl)methoxy)ethylcarbamate] | 
 |  | > 9.00 | CNC[C@H](C[C@H]1CCC2(CC2)OC1)NC(=O)N1CCC[C@@H]([C@@H](OCCNC(=O)OC)c2cc(F)cc(F)c2)C1 [I*-160a, methyl 2-((R)-(3,5-difluorophenyl)((R)-1-((S)-1-((R)-4-oxaspiro[2.5]octan-6-yl)-3-(methylamino)propan-2-ylcarbamoyl)piperidin-3-yl)methoxy)ethylcarbamate] | 
 |  | > 8.00 | COC(=O)NCCO[C@@H](c1cc(F)cc(F)c1)[C@@H]1CCCN(C(=O)NC[C@@H](N)C[C@H]2CCCCOC2)C1 [I*-73a, methyl 2-((R)-((R)-1-((S)-2-amino-3-((R)-oxepan-3-yl)propylcarbamoyl)piperidin-3-yl)(3,5-difluorophenyl)methoxy)ethylcarbamate] | 
 |  | > 9.00 | CN[C@H](CNC(=O)N1CCC[C@@H]([C@@H](OCCNC(=O)OC)c2cccc(Cl)c2)C1)C[C@H]1CCCCOC1 [I*-110a, methyl 2-((R)-(3-chlorophenyl)((R)-1-((S)-2-(methylamino)-3-((R)-oxepan-3-yl)propylcarbamoyl)piperidin-3-yl)methoxy)ethylcarbamate] | 
 |  | > 8.00 | CNC[C@H](C[C@H]1CCCCOC1)NC(=O)N1CCC[C@@H]([C@@H](OCCNC(=O)OC)c2cc(F)ccc2C)C1 [I*-79a, methyl 2-((R)-(5-fluoro-2-methylphenyl)((R)-1-((S)-1-(methylamino)-3-((R)-oxepan-3-yl)propan-2-ylcarbamoyl)piperidin-3-yl)methoxy)ethylcarbamate] | 
